This passage reports inhibition results from patent US20250214960A1, “COMPOUNDS HAVING ACTIVITY OF DEGRADING GSPT1 AND APPLICATION THEREOF” (SHANGHAI MEIZER PHARMACEUTICALS CO., LTD., priority 2021, published 2025).

This assay addresses T1, GSPT1 protein (Homo sapiens, UniProt P15170+Q96SW2).
T1 construct: endogenous in cells; host or cells: Jeko-1
Briefly: Western blot detection of degradation activity of GSPT1 protein in Jeko-1 cells. It counts as cell-based. As to conditions: JeKo-1, 24 h, read-out: GSPT1 degradation rate (%). Here is the method:
Test Example 1: Western Blot Detection of Degradation Activity of GSPT1 Protein by the Compounds
Cell line: Jeko-1 cell line was cultured with an RPMI1640 media containing 20% fetal bovine serum in an incubator at 37° C., 5% CO2, and saturated humidity.
DMSO control group and test compound (concentration shown in the table below) were set up, after processing for 24 hours, the cells were collected, pre-cooled cell lysate was added and left on ice for 10 minutes. The total protein of the cells was extracted, and the protein concentration was measured and quantified using the BCA method. Routine gel preparation, sample loading, electrophoresis were conducted, then the membrane was transferred, and sealed, wherein the primary antibody was diluted with a blocking solution at 1:500-5000. The membrane was immersed in the diluted primary antibody and incubated overnight at 4° C. After rinsing, the secondary antibody was diluted with a sealing solution at 1:10000-20000, the membrane was immersed in the diluted secondary antibody, and incubated at room temperature for 45 minutes. After rinsing, the results were tested on ODYSSEY (Li-COR). GAPDH was used as an internal reference control.
Image J software was used to perform gray level analysis on each band and the degradation rate of GSPT1 protein by the compounds was calculated.

Read-outs that look alike come from different tables or passages of the source.

T1 sequence (P15170 whole entry): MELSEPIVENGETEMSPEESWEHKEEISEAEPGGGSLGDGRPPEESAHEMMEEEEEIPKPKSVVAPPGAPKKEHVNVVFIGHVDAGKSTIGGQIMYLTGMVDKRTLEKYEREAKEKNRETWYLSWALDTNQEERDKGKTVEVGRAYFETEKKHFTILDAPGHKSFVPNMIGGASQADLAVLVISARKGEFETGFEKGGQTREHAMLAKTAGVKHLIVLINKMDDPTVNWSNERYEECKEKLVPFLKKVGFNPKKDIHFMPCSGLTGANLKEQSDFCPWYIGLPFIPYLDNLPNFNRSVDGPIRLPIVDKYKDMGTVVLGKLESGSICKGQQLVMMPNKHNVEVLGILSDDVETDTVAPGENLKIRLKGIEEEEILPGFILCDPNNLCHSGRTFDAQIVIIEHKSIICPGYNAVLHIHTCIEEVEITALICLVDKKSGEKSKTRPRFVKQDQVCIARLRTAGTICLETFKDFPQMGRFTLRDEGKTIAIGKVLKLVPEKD
T1 sequence (Q96SW2 whole entry): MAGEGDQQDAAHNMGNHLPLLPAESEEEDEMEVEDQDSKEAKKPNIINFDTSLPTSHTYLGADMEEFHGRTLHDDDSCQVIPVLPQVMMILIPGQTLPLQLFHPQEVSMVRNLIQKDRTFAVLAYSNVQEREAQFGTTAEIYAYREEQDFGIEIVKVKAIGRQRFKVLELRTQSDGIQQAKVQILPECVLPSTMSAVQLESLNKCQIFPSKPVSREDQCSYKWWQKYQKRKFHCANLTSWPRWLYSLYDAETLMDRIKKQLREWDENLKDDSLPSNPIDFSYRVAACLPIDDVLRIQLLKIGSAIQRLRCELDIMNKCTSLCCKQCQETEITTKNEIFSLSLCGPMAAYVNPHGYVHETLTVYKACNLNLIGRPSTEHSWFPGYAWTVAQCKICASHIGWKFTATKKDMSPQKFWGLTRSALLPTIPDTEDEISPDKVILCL
T1 sequence (Q16531 whole entry partner): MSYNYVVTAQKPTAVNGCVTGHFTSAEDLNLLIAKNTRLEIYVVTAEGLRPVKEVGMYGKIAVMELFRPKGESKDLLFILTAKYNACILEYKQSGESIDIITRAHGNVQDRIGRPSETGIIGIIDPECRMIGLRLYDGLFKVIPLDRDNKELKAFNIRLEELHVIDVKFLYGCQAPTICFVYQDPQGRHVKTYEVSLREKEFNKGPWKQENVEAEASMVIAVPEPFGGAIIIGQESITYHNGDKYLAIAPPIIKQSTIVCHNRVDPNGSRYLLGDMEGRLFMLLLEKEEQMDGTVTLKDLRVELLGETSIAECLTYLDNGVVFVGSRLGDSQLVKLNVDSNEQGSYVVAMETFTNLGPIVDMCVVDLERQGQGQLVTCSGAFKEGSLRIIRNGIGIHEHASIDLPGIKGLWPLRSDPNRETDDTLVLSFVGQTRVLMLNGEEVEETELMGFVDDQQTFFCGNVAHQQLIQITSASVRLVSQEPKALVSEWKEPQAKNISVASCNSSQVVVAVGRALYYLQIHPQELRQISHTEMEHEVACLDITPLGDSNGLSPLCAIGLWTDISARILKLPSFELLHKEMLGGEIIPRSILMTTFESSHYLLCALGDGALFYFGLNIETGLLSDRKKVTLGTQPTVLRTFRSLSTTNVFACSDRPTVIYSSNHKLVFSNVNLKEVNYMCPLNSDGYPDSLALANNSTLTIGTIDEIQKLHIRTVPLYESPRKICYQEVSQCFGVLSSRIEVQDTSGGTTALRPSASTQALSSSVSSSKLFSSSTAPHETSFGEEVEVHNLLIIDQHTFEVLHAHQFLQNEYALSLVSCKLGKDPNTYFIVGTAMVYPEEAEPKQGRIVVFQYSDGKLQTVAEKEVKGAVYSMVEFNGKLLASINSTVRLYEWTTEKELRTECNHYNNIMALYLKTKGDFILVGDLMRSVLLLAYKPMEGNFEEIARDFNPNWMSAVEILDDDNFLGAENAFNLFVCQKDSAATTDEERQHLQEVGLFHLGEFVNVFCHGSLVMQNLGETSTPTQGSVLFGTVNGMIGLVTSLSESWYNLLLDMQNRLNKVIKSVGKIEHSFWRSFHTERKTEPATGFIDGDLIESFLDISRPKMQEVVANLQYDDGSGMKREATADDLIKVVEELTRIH

For the molecule `CC(C)(C)OC(=O)N[C@H](Cc1ccccc1)C(=O)NCc1ccc2c(c1)CN(C1CCC(=O)NC1=O)C2=O` (stereo partly drawn) [Compound 4-132, Tert butyl ((2R)-1-((2-(2,6-dioxypiperidin-3-yl)-1-oxoisoindoline-5-yl)methyl)amino)-1-oxo-3-phenylpro p-2-yl) carbamate], the inhibition at 0.1 µM (100 nM, Jeko-1 cells, 24 hours) came to 93%. Further, the inhibition at 10 µM (10 μM, Jeko-1 cells, 24 hours) came out at 96%.

In the case of `Cc1ccc(S(=O)(=O)N[C@H](C(=O)NCc2ccc3c(c2)CN(C2CCC(=O)NC2=O)C3=O)c2ccccc2)cc1` (some centres unmarked) [Compound 4-176], the inhibition at 0.1 µM (100 nM, Jeko-1 cells, 24 hours) stood at 35%. The inhibition at 10 µM (10 μM, Jeko-1 cells, 24 hours) is 53%.

Take `O=C1CCC(N2Cc3cc(CNC(=O)C(CNC(=O)c4ccccc4)c4ccccc4)ccc3C2=O)C(=O)N1` (centres unmarked) [Compound 5-26]: the inhibition at 0.1 µM was found to be 33% and the inhibition at 10 µM was 98%.

Regarding `CC(C)(C)OC(=O)N[C@@H](CC(N)=O)C(=O)NCc1ccc2c(c1)CN(C1CCC(=O)NC1=O)C2=O` (stereo partly drawn) [Compound 5-43, Tert butyl ((2S)-4-amino-1-((2-(2,6-dioxypiperidin-3-yl)-1-oxoisoindolin-5-yl)methyl)amino)-1,4-dioxobutane-2-yl) carbamate], the inhibition at 0.1 µM (100 nM, Jeko-1 cells, 24 hours) was 11.6%. For the same molecule, the inhibition at 10 µM (10 μM, Jeko-1 cells, 24 hours) was determined as 87.9%.

`CC(C)(C)OC(=O)O[C@H](C(=O)NCc1ccc2c(c1)CN(C1CCC(=O)NC1=O)C2=O)c1ccccc1` (stereo partly drawn) [Compound 5-82, Tert butyl ((1S)-2-((2-(2,6-dioxypiperidin-3-yl)-1-oxoisoindoline-5-yl)methyl)amino)-2-oxo-1-phenylethy 1) carbonate]: the inhibition at 0.1 µM (100 nM, Jeko-1 cells, 24 hours) worked out at 29.8%. Under “10 μM, Jeko-1 cells, 24 hours”, the inhibition at 10 µM was found to be 74.8%.

Consider `CC(C)(C)C(=O)NCC(C(=O)NCc1ccc2c(c1)CN(C1CCC(=O)NC1=O)C2=O)c1ccccc1` (centres unmarked) [Compound 5-23, N-((2-(2,6-dioxypiperidin-3-yl)-1-oxoisoidoline-5-yl)methyl)-2-phenyl-3-terpentylaminopropionamide], for which the inhibition at 0.1 µM (100 nM, Jeko-1 cells, 24 hours) stood at 28%. The inhibition at 10 µM (10 μM, Jeko-1 cells, 24 hours) came to 93%.

For the molecule `COC(C(=O)N[C@H](C(=O)NCc1ccc2c(c1)CN(C1CCC(=O)NC1=O)C2=O)c1ccccc1)c1ccccc1` (some centres unmarked) [Compound 4-199], the inhibition at 0.1 µM (100 nM, Jeko-1 cells, 24 hours) is 14%. For the setting “10 μM, Jeko-1 cells, 24 hours”, the inhibition at 10 µM came to 81%.

On to `CC(C)(C)OC(=O)NCC(C(=O)NCc1ccc2c(c1)CN(C1CCC(=O)NC1=O)C2=O)c1ccccc1` (centres unmarked) [Compound 4-131], for which the inhibition at 0.1 µM (100 nM, Jeko-1 cells, 24 hours) stood at 96%. Moreover, where the note is “10 μM, Jeko-1 cells, 24 hours”, the inhibition at 10 µM turned out to be 97%.

As for `CC(C)(C)NC(=O)NCC(C(=O)NCc1ccc2c(c1)CN(C1CCC(=O)NC1=O)C2=O)c1ccccc1` (centres unmarked) [Compound 5-12], the inhibition at 0.1 µM (100 nM, Jeko-1 cells, 24 hours) amounted to 18%. In addition, where the note is “10 μM, Jeko-1 cells, 24 hours”, the inhibition at 10 µM was 71%.

In the case of `CC(C)(C)OC(=O)NCC(C(=O)NCc1ccc2c(c1)CN(C1CCC(=O)NC1=O)C2=O)C1CCCCC1` (centres unmarked) [Compound 5-55, Tert butyl (2-cyclohexyl-3-((2-(2,6-dioxypiperidin-3-yl)-1-oxoisoindoline-5-yl)methyl)amino)-3-oxopropyl) carbamate], the inhibition at 0.1 µM (100 nM, Jeko-1 cells, 24 hours) was found to be 85.1%. In addition, where the note is “10 μM, Jeko-1 cells, 24 hours”, the inhibition at 10 µM is 93.9%.

`O=C1CCC(N2Cc3cc(CNC(=O)[C@@H](NC(=O)OC4CCCCC4)c4ccccc4)ccc3C2=O)C(=O)N1` (stereo partly drawn) [Compound 6-02, ((1S)-2-(((2-(2,6-dioxypiperidin-3-yl)-1-oxoisoindoline-5-yl)methyl)amino)-2-oxo-1-phenylethyl) carbamate Cyclohexanol Ester]: the inhibition at 0.01 µM stood at 95% and the inhibition at 1 µM was determined as 96%.

With `O=C1CCC(N2Cc3cc(CNC(=O)[C@@H](CNC(=O)C4CCCC4)c4ccccc4)ccc3C2=O)C(=O)N1` (some centres unmarked) [Compound 5-95], the inhibition at 0.1 µM (100 nM, Jeko-1 cells, 24 hours) worked out at 16%. In addition, the inhibition at 10 µM (10 μM, Jeko-1 cells, 24 hours) stood at 70%.

As for `CC(C)(C)OC(=O)NC(CC(=O)NCc1ccc2c(c1)CN(C1CCC(=O)NC1=O)C2=O)c1ccccc1` (centres unmarked) [Compound 4-130, Tert butyl (3-((2-(2,6-dioxypiperidin-3-yl)-1-oxoisoindolin-5-yl)methyl)amino)-3-oxo-1-phenylpropyl) carbamate], for the setting “100 nM, Jeko-1 cells, 24 hours”, the inhibition at 0.1 µM amounted to 51%. Moreover, for the setting “10 μM, Jeko-1 cells, 24 hours”, the inhibition at 10 µM stood at 94%.

As for `CC(C)OC(=O)N[C@H](C(=O)NCc1ccc2c(c1)CN(C1CCC(=O)NC1=O)C2=O)c1ccccc1` (stereo partly drawn) [Compound 4-160, Isopropyl ((1S)-2-((2-(2,6-dioxypiperidin-3-yl)-1-oxoisoindoline-5-yl)methyl)amino)-2-oxo-1-phenylethy 1) carbamate], the inhibition at 0.1 µM is 96% and the inhibition at 10 µM was found to be 89%.

On to `CC(C)(C)OC(=O)N[C@@H](C(=O)NCc1ccc2c(c1)CN(C1CCC(=O)NC1=O)C2=O)c1ccccc1` (stereo partly drawn) [Compound 4-108, Tert butyl ((1R)-2-((2-(2-(2,6-Dioxopiperidin-3-yl)-1-oxoisoindolin-5-yl)methyl)amino)-2-oxo-1-phenylethyl) carbamate], for which, for the setting “10 nM, Jeko-1 cells, 24 hours”, the inhibition at 0.01 µM worked out at 10%. Under “1 μM, Jeko-1 cells, 24 hours”, the inhibition at 1 µM turned out to be 95%.

As to `O=C1CCC(N2Cc3cc(CNC(=O)[C@@H](NC(=O)OCc4ccccc4)c4ccccc4)ccc3C2=O)C(=O)N1` (stereo partly drawn) [Compound 4-139, Benzyl ((1S)-2-((2-(2,6-dioxypiperidin-3-yl)-1-oxoisoindoline-5-yl)methyl)amino)-2-oxo-1-phenylethyl) carbamate], the inhibition at 0.1 µM (100 nM, Jeko-1 cells, 24 hours) came out at 98%. Also, where the note is “10 μM, Jeko-1 cells, 24 hours”, the inhibition at 10 µM was 97%.

In the case of `O=C1CCC(N2Cc3cc(CNC(=O)[C@@H](CNC(=O)C4CCCC4)c4ccc(Cl)cc4)ccc3C2=O)C(=O)N1` (some centres unmarked) [Compound 5-52], the inhibition at 0.1 µM (100 nM, Jeko-1 cells, 24 hours) was found to be 38.1%. Moreover, the inhibition at 10 µM (10 μM, Jeko-1 cells, 24 hours) was 92.7%.

For `CC(C)OC(=O)N[C@@H](Cc1ccccc1)C(=O)NCc1ccc2c(c1)CN(C1CCC(=O)NC1=O)C2=O` (stereo partly drawn) [Compound 5-39, Isopropyl ((2S)-1-(2-(2,6-dioxypiperidin-3-yl)-1-oxoisoindoline-5-yl)methyl)amino)-1-oxo-3-phenylprop-2-yl) carbamate], the inhibition at 0.1 µM is 65.2% and the inhibition at 10 µM was determined as 85.8%.

Regarding `O=C1CCC(N2Cc3cc(CNC(=O)C(NC(=O)CC4CCCC4)c4ccccc4)ccc3C2=O)C(=O)N1` (centres unmarked) [Compound 5-29, 2-(2-cyclopentylacetamido)-N-((2-(2,6-dioxopyridin-3-yl)-1-oxoisoidoline-5-yl)methyl)-2-phenylacetamide], the inhibition at 0.1 µM (100 nM, Jeko-1 cells, 24 hours) came out at 70%. The inhibition at 10 µM (10 μM, Jeko-1 cells, 24 hours) stood at 97%.

Regarding `CCOC(=O)N[C@H](C(=O)NCc1ccc2c(c1)CN(C1CCC(=O)NC1=O)C2=O)c1ccccc1` (stereo partly drawn) [Compound 4-138, Ethyl ((1S)-2-((2-(2,6-dioxypiperidin-3-yl)-1-oxoisoindoline-5-yl)methyl)amino)-2-oxo-1-phenylethyl) carbamate], the inhibition at 0.1 µM (100 nM, Jeko-1 cells, 24 hours) was 31%. Further, the inhibition at 10 µM (10 μM, Jeko-1 cells, 24 hours) was 88%.

As for `O=C1CCC(N2Cc3cc(CNC(=O)C(CNC(=O)C4CCCC4)C4CCCCC4)ccc3C2=O)C(=O)N1` (centres unmarked) [Compound 5-59], for the setting “100 nM, Jeko-1 cells, 24 hours”, the inhibition at 0.1 µM was 36%. The inhibition at 10 µM (10 μM, Jeko-1 cells, 24 hours) turned out to be 93.7%.

Turning to `CC(C)(C)NC(=O)CNC(Cc1ccccc1)C(=O)NCc1ccc2c(c1)CN(C1CCC(=O)NC1=O)C2=O` (centres unmarked) [Compound 4-186], the inhibition at 0.1 µM (100 nM, Jeko-1 cells, 24 hours) amounted to 26%. The inhibition at 10 µM (10 μM, Jeko-1 cells, 24 hours) turned out to be 56%.

Consider `CN(C(=O)OC(C)(C)C)C(C(=O)NCc1ccc2c(c1)CN(C1CCC(=O)NC1=O)C2=O)c1ccc(Cl)c(Cl)c1` (centres unmarked) [Compound 5-76, Tert butyl (1-(3,4-dichlorophenyl)-2-((2-(2,6-dioxopyridin-3-yl)-1-oxoisoidoline-5-yl)methyl)amino)-2-oxoethyl (methyl) carbamate], for which, for the setting “100 nM, Jeko-1 cells, 24 hours”, the inhibition at 0.1 µM worked out at 65.2%. Under “10 μM, Jeko-1 cells, 24 hours”, the inhibition at 10 µM was determined as 84.6%.

In the case of `CC(C)(C)OC(=O)NC[C@@H](Cc1ccccc1)C(=O)NCc1ccc2c(c1)CN(C1CCC(=O)NC1=O)C2=O` (stereo partly drawn) [Compound 4-171, Tert butyl ((2R)-2-benzyl-3-((2-(2,6-dioxypiperidin-3-yl)-1-oxoisoindolin-5-yl)methyl)amino)-3-oxopropyl) carbamate], the inhibition at 0.1 µM (100 nM, Jeko-1 cells, 24 hours) amounted to 29%. Further, the inhibition at 10 µM (10 μM, Jeko-1 cells, 24 hours) worked out at 88%.

For `CC(C)(C)OC(=O)NC(CC(=O)NCc1ccc2c(c1)CN(C1CCC(=O)NC1=O)C2=O)C1CCCC1` (centres unmarked) [Compound 5-99, Tert butyl (1-cyclopentyl-3-((2-(2,6-dioxypiperidin-3-yl)-1-oxoisoindoline-5-yl)methyl)amino)-3-oxopropyl) carbamate], under “100 nM, Jeko-1 cells, 24 hours”, the inhibition at 0.1 µM is 98%. Further, under “10 μM, Jeko-1 cells, 24 hours”, the inhibition at 10 µM is 99%.

With `O=C1CCC(N2Cc3cc(CNC(=O)C(CNC(=O)C4CCCCC4)c4ccccc4)ccc3C2=O)C(=O)N1` (centres unmarked) [Compound 5-25], the inhibition at 0.1 µM (100 nM, Jeko-1 cells, 24 hours) came out at 58%. Also, for the setting “10 μM, Jeko-1 cells, 24 hours”, the inhibition at 10 µM came out at 96%.

For the molecule `O=C1CCC(N2Cc3cc(CNC(=O)[C@H](CC4CCCCC4)NC(=O)OC4CCCC4)ccc3C2=O)C(=O)N1` (stereo partly drawn) [Compound 5-93, Cyclopentyl ((2S)-3-cyclohexyl-1-((2-(2,6-dioxopyridin-3-yl)-1-oxoisoidoline-5-yl)methyl)amino)-1-oxopropan-2-yl) carbamate], the inhibition at 0.1 µM came to 99% and the inhibition at 10 µM stood at 100%.

In the case of `CC(C)[C@@H]1CC[C@@H](C)C[C@H]1OC(=O)N[C@H](C(=O)NCc1ccc2c(c1)CN(C1CCC(=O)NC1=O)C2=O)c1ccccc1` (some centres unmarked) [Compound 4-175b], the inhibition at 0.01 µM worked out at 98% and the inhibition at 1 µM came to 99%.
